Source: US9125913B2, “Bcl-2-selective apoptosis-inducing agents for the treatment of cancer and immune diseases” (AbbVie Inc., priority 2008, dated 2015)
Like-named read-outs stand apart in the source and are kept apart here.

Columns and labels:
GST-Bcl-2 [1] = molecular target: GST-Bcl-2 (Homo sapiens (Human), UniProt P10415); test: TR-FRET binding assay, Bcl-2; conditions: TR-FRET; GST-Bcl-2 1 nM, F-Bak probe 100 nM, Tb-anti-GST 1 nM
Outline: (§1)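 Compounds serially diluted in DMSO from 50 μM (2× starting concentration, 10% DMSO), mixed with GST-tagged protein, F-Bak peptide probe and Tb-labeled antibody, incubated 3 h at room temperature.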

GST-Bcl-2 [2] = test: TR-FRET binding assay, Bcl-2; conditions: TR-FRET Ki values
Outline: as §1

GST-Bcl-XL = GST-Bcl-XL (Homo sapiens (Human), UniProt Q07817); test: TR-FRET binding assay, Bcl-XL; conditions: GST-Bcl-XL 1 nM, F-Bak probe 100 nM, Tb-anti-GST 1 nM
Sequence of GST-Bcl-XL (Q07817 whole entry): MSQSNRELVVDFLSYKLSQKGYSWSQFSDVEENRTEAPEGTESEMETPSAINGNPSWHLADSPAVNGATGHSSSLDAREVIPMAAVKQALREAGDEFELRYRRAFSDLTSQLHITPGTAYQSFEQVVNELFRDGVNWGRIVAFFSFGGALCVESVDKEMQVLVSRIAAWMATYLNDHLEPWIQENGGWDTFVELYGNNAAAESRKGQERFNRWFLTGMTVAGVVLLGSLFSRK
Protocol: Tb-anti-GST antibody was purchased from Invitrogen (Catalog No. PV4216).
Representative compounds were serially diluted in dimethyl sulfoxide (DMSO) starting at 50 μM (2× starting concentration; 10% DMSO) and 10 μL were transferred into a 384-well plate.
The samples were then mixed on a shaker for 1 minute and incubated for an additional 3 hours at room temperature. For each assay, the probe/antibody and protein/probe/antibody were included on each assay plate as negative and positive controls, respectively. Fluorescence was measured on the Envision (Perkin Elmer) using a 340/35 nm excitation filter and 520/525 (F-Bak peptide) and 495/510 nm (Tb-labeled anti-Histidine antibody) emission filters.
The inhibition constant (Ki) is the dissociation constant of an enzyme-inhibitor complex or a protein/small molecule complex, wherein the small molecule is inhibiting binding of one protein to another protein or peptide. […] Inhibition constants were determined using Wang's equation (Wang Z-X., An Exact Mathematical Expression For Describing Competitive Binding Of Two Different Ligands To A Protein Molecule. FEBS Lett. 1995, 360:111-4).

FL5.12/Bcl-2 cells = test: FL5.12/Bcl-2 cell viability assay; type: cell-based, murine; conditions: for Selectivity Ratio (Platelet EC50/FL5.12/Bcl-2 EC50): ratio of canine platelet EC50 to FL5.12/Bcl-2 EC50
Outline: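 IL-3 withdrawal 48 hrs (no WEHI-3B medium), then compound 24 hrs, various concentrations; 37° C, 5% CO2; readout CellTitre Glo. Murine prolymphocytic FL5.12 stably overexpressing Bcl-2.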

circulating platelets [3] = conditions: following injection into C57BL/6 mice; cited from earlier work
circulating platelets [4] = conditions: following injection in beagle canines; cited from earlier work
[5] = test system: isolated canine platelets; test: Platelet cell viability assay; type: cell-based; conditions: Canis lupus familiaris, 5 h; isolated canine platelets (platelet-rich plasma), five hours at 37° C., Cell Titer Glo
Protocol: After the incubation, platelets were equilibrated to room temperature for 20 minutes and then an equal volume of Cell Titer Glo reagent (Promega Corporation) was added. Samples were mixed for two minutes and then allowed to equilibrate for an additional 10 minutes at room temperature. The luminescence generated from the samples was quantitated using an LJL Analyst plate reader.
The effect of compounds on platelet survival can be directly evaluated ex vivo by examining the viability of isolated canine platelets in the presence of various concentrations of compound.

Sequence of GST-Bcl-2 (Homo sapiens (Human), UniProt P10415) (P10415 whole entry, looked up): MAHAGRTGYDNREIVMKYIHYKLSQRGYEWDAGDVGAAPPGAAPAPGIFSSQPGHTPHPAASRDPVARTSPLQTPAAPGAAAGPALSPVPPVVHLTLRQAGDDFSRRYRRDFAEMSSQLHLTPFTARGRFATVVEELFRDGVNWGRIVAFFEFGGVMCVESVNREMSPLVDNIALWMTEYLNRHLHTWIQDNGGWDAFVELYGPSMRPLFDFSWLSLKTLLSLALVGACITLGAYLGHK

CN1CCC(Nc2ccc(S(=O)(=O)NC(=O)c3ccc(N4CCN(CC5=C(c6ccc(Cl)cc6)CC(C)(C)CC5)CC4)cc3Oc3ccc4[nH]ccc4c3)cc2S(=O)(=O)C(F)(F)F)CC1 [Example 76, 4-(4-{[2-(4-chlorophenyl)-4,4-dimethylcyclohex-1-en-1-yl]methyl}piperazin-1-yl)-2-(1H-indol-5-yloxy)-N-({4-[(1-methylpiperidin-4-yl)amino]-3-[(trifluoromethyl)sulfonyl]phenyl}sulfonyl)benzamide]
Ki (GST-Bcl-2 [1]): 50 pM | Binding selectivity ratio (Bcl-XL Ki/Bcl-2 Ki) (GST-Bcl-2 [2]): 64.5 | Ki (GST-Bcl-XL): 10 µM | Selectivity Ratio (Platelet EC50/FL5.12/Bcl-2 EC50) (FL5.12/Bcl-2 cells): 221

CN(C)CC[C@H](CSc1ccccc1)Nc1ccc(S(=O)(=O)NC(=O)c2ccc(N3CCN(Cc4ccccc4-c4ccc(Cl)cc4)CC3)cc2)cc1[N+](=O)[O-] [ABT-737, 4-(4-((4′-chloro-1,1′-biphenyl-2-yl)methyl)piperazin-1-yl)-N-((4-(((1R)-3-(dimethylamino)-1-((phenylthio)methyl)propyl)amino)-3-nitrophenyl)sulfonyl)benzamide]
decrease in circulating platelets (circulating platelets [3]): rapid, concentration dependant decrease in circulating platelets | decrease in circulating platelets (circulating platelets [4]): rapid, concentration dependant decrease in circulating platelets

CN1CCC(Nc2ccc(S(=O)(=O)NC(=O)c3ccc(N4CCN(CC5=C(c6ccc(Cl)cc6)CCC5)CC4)cc3Oc3cccc4[nH]ccc34)cc2[N+](=O)[O-])CC1 [Example 148, 4-(4-{[2-(4-chlorophenyl)cyclopent-1-en-1-yl]methyl}piperazin-1-yl)-2-(1H-indol-4-yloxy)-N-({4-[(1-methylpiperidin-4-yl)amino]-3-nitrophenyl}sulfonyl)benzamide]
EC50 [5]: 120 µM | Binding selectivity ratio (Bcl-XL Ki/Bcl-2 Ki) (GST-Bcl-2 [2]): >228.4 | EC50 (FL5.12/Bcl-2 cells; Mus musculus, FL5.12/Bcl-2 cells, IL-3 withdrawal, 24 hrs treatment, CellTitre Glo): 0.07 µM | Selectivity Ratio (Platelet EC50/FL5.12/Bcl-2 EC50) (FL5.12/Bcl-2 cells): 278

CN1CCC(Nc2ccc(S(=O)(=O)NC(=O)c3ccc(N4CCN(CC5=C(c6ccc(Cl)cc6)CC(C)(C)OC5)CC4)cc3Oc3ccc4[nH]ccc4c3)cc2[N+](=O)[O-])CC1 [Example 150, 4-(4-{[4-(4-chlorophenyl)-6,6-dimethyl-5,6-dihydro-2H-pyran-3-yl]methyl}piperazin-1-yl)-2-(1H-indol-5-yloxy)-N-({4-[(1-methylpiperidin-4-yl)amino]-3-nitrophenyl}sulfonyl)benzamide]
Binding selectivity ratio (Bcl-XL Ki/Bcl-2 Ki) (GST-Bcl-2 [2]): 667 | Selectivity Ratio (Platelet EC50/FL5.12/Bcl-2 EC50) (FL5.12/Bcl-2 cells): 509

CN(C)CCOc1cccc(-c2ccc(Cl)cc2)c1CN1CCN(c2ccc(C(=O)NS(=O)(=O)c3ccc(NCCCN4CCCC4)c([N+](=O)[O-])c3)c(Oc3ccc4[nH]ccc4c3)c2)CC1 [Example 134, 4-[4-({4′-chloro-3-[2-(dimethylamino)ethoxy]-1,1′-biphenyl-2-yl}methyl)piperazin-1-yl]-2-(1H-indol-5-yloxy)-N-({3-nitro-4-[(3-pyrrolidin-1-ylpropyl)amino]phenyl}sulfonyl)benzamide]
Binding selectivity ratio (Bcl-XL Ki/Bcl-2 Ki) (GST-Bcl-2 [2]): 347.1 | Selectivity Ratio (Platelet EC50/FL5.12/Bcl-2 EC50) (FL5.12/Bcl-2 cells): 98

CN1CCC(Nc2ccc(S(=O)(=O)NC(=O)c3ccc(N4CCN(CC5=C(c6ccc(Cl)cc6)CCCCC5)CC4)cc3Oc3cccc4[nH]ccc34)cc2[N+](=O)[O-])CC1 [Example 147, 4-(4-{[2-(4-chlorophenyl)cyclohept-1-en-1-yl]methyl}piperazin-1-yl)-2-(1H-indol-4-yloxy)-N-({4-[(1-methylpiperidin-4-yl)amino]-3-nitrophenyl}sulfonyl)benzamide]
Binding selectivity ratio (Bcl-XL Ki/Bcl-2 Ki) (GST-Bcl-2 [2]): >1284.0 | Selectivity Ratio (Platelet EC50/FL5.12/Bcl-2 EC50) (FL5.12/Bcl-2 cells): 1895
